This note sets out measurements from US11279712B2, “Macrocyclic compounds that inhibit MCL-1 protein” (AMGEN INC., priority 2017, dated 2022).

Like-named read-outs stand apart in the source and are kept apart here.

The target in experiment [1] is Mcl-1/Bim interaction (recombinant human Mcl-1 residues 171-327) (Homo sapiens (Human), UniProt Q07820). As to the kind of experiment: Cell Free Mcl-1:Bim Affinity Assay (Mcl-1 HTRF). Type of experiment: binding. The conditions noted are these: TR-FRET, 0.1 nM Mcl-1(171-327), 0.05 nM biotin-Bim(51-76). The method, then:
Cell Free Mcl-1:Bim Affinity Assay (Mcl-1 HTRF)
The inhibition of the Mcl-1/Bim interaction was measured using a time-resolved fluorescence resonance energy transfer (TR-FRET) assay. The recombinant human Mcl-1 (C-terminally 6×His tagged Mcl-1 containing residues 171-327) was generated at Amgen Inc (Thousand Oaks, Calif.). A biotinylated peptide derived from human Bim (residues 51-76) was purchased from CPC Scientific (San Jose, Calif.). The TR-FRET assay was conducted in a 384-well white OptiPlate™ (PerkinElmer, Waltham, Mass.) in a total volume of 40 μL. The reaction mixture contained 0.1 nM Mcl-1(171-327), 0.05 nM biotin-Bim(51-76), 0.05 nM LANCES Eu-W1024 Anti-6×His (PerkinElmer), 0.072 nM Streptavidin-Xlent (Cisbio, Bedford, Mass.), and serially diluted test compounds in the binding buffer of 20 mM Hepes, pH 7.5, 150 mM NaCl, 0.016 mM Brij®35, and 1 mM dithiothreitol. Test compounds were pre-incubated with Mcl-1(171-327) and biotin-Bim (51-76) for 60 min before addition of the detection mixture (LANCE® Eu-W1024 Anti-6×His and Streptavidin-Xlent). The reaction plates were further incubated overnight and then were read on an Envision® multimode reader (PerkinElmer). Fluorescence signals were measured at 620 nm (40-nm bandwidth) and 665 nm (7.5-nm bandwidth) with a 60 μs delay after excitation at 320 nm (75-nm bandwidth). The signal ratio at 665/620 nm corresponded to the Mcl-1/Bim interaction and was used in all data analyses. The IC50 values of test compounds were determined from duplicate data by analyzing competition curves using a four-parameter sigmoidal model in GraphPad Prism (GraphPad Software, San Diego, Calif.) or in Genedata Screener® (Genedata, Basel, Switzerland).
For orientation: TR-FRET usually uses a lanthanide donor and a delayed reading to cut background.

Experiment [2] relates to OPM-2 human multiple myeloma cell line. Kind of experiment: Cell Viability Assay (OPM-2 10 FBS). The conditions noted are these: OPM-2 cells, CellTiter-Glo, read-out: OPM-2 10% FBS IC50 IP. It is filed as cell-based. The method, then: Cell Viability Assay (OPM-2 10 FBS)
The human multiple myeloma cell line, OPM-2, was cultured in complete growth medium containing RPMI 1640 and 10% fetal bovine serum (FBS). Cells were seeded into 384-well plates at 3000 cells/well density in complete growth medium containing 10% FBS, and incubated for 16 h with serially diluted test compounds in a 37° C. incubator with 5% CO2. Cell viability was tested using CellTiter-Glo® assay (Promega, Madison, Wis.) according to the manufacturer recommendations. Luminescence was determined using an EnVision® Multilabel plate reader 25 min after the addition of detection reagent. IC50 values were then calculated with Xlfit using a logistical 4-parameter fit model in GraphPad Prism (GraphPad Software, San Diego, Calif.) or in Genedata Screener® (Genedata, Basel, Switzerland).
A general note: In ATP-based viability assays light output follows the ATP content of the culture.

Mcl-1/Bim interaction (recombinant human Mcl-1 residues 171-327), sequence (Q07820 171-327): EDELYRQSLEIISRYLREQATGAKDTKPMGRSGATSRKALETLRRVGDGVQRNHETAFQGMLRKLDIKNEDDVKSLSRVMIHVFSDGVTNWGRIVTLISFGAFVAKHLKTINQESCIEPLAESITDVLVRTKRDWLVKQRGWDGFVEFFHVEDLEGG

Usually IC50 stands for the concentration that inhibits the measured activity by half. For `C[C@@H]1[C@@H](C)CCC[C@H](CN2CCN3CCN(C)C[C@@H]3C2)[C@@H]2CC[C@H]2CN2C[C@@]3(CCCc4cc(Cl)ccc43)COc3ccc(cc32)C(=O)NS1(=O)=O` (single isomer, unassigned) [Example 1], the IC50 in experiment [1] came to 0.225 nM; in experiment [2] (16 h) it was 117 nM. On the same counts, the results for `CC(=O)N1CCN2CCN(C[C@H]3CCC[C@H](C)[C@@H](C)S(=O)(=O)NC(=O)c4ccc5c(c4)N(C[C@@H]4CC[C@@H]34)C[C@@]3(CCCc4cc(Cl)ccc43)CO5)C[C@H]2C1` (single isomer, unassigned) [Example 4] are 0.212 nM and 172 nM. For the compound `C[C@@H]1[C@@H](C)CCC[C@H](CN2CCN(C)CC2)[C@@H]2CC[C@H]2CN2C[C@@]3(CCCc4cc(Cl)ccc43)COc3ccc(cc32)C(=O)NS1(=O)=O` (single isomer, unassigned) [Example 5], the values for the IC50 in experiment [1] and in experiment [2] (16 h) were 0.622 nM and 173 nM, respectively.

On to `C[C@@H]1[C@@H](C)CCC[C@H](CN2CCN3CCN(C)C[C@@H]3C2)[C@@H]2CC[C@H]2CN2C[C@@]3(CCCc4cc(Cl)ccc43)COc3ccc(cc32)C(=O)NS1(=O)=O` (single isomer, unassigned) [Example 6], for which the IC50 is 0.353 nM in experiment [1] and 177 nM in experiment [2] (16 h). Turning to `COCCN1CCN(C[C@H]2CCC[C@H](C)[C@@H](C)S(=O)(=O)NC(=O)c3ccc4c(c3)N(C[C@@H]3CC[C@@H]23)C[C@@]2(CCCc3cc(Cl)ccc32)CO4)CC1=O` (single isomer, unassigned) [Example 7], the IC50 in experiment [1] amounted to 0.181 nM; in experiment [2] (16 h) it was 180 nM.

Regarding `C[C@@H]1[C@@H](C)CCC[C@@H](C(=O)N2CCOCC2)[C@@H]2CC[C@H]2CN2C[C@@]3(CCCc4cc(Cl)ccc43)COc3ccc(cc32)C(=O)NS1(=O)=O` (single isomer, unassigned) [Example 8], the IC50 in experiment [1] came out at 0.126 nM; in experiment [2] (16 h) it was 221 nM. For the compound `C[C@@H]1[C@@H](C)CCC[C@H](C(=O)N2CCC2)[C@@H]2CC[C@H]2CN2C[C@@]3(CCCc4cc(Cl)ccc43)COc3ccc(cc32)C(=O)NS1(=O)=O` (single isomer, unassigned) [Example 9], the IC50 worked out at 0.246 nM in experiment [1] and 223 nM in experiment [2] (Homo sapiens, OPM-2, 16 h).

Consider `C[C@@H]1[C@@H](C)CCC[C@H](CN2CCN3CCOC[C@@H]3C2)[C@@H]2CC[C@H]2CN2C[C@@]3(CCCc4cc(Cl)ccc43)COc3ccc(cc32)C(=O)NS1(=O)=O` (single isomer, unassigned) [Example 10], for which the IC50 in experiment [1] was determined as 0.291 nM; in experiment [2] (Homo sapiens, OPM-2, 16 h) it was 227 nM. In the case of `COCCNC(=O)[C@H]1CCC[C@H](C)[C@@H](C)S(=O)(=O)NC(=O)c2ccc3c(c2)N(C[C@@H]2CC[C@H]21)C[C@@]1(CCCc2cc(Cl)ccc21)CO3` (single isomer, unassigned) [Example 11], the IC50 in experiment [1] is 0.237 nM; in experiment [2] (Homo sapiens, OPM-2, 16 h) it was 242 nM. For `COCCN1CCN(C[C@H]2CCC[C@H](C)[C@@H](C)S(=O)(=O)NC(=O)c3ccc4c(c3)N(C[C@@H]3CC[C@@H]23)C[C@@]2(CCCc3cc(Cl)ccc32)CO4)CC1` (single isomer, unassigned) [Example 12], the IC50 stood at 0.542 nM in experiment [1] and 254 nM in experiment [2] (16 h). As for `C[C@@H]1[C@@H](C)CCC[C@H](CN2CC(N(C)C)C2)[C@@H]2CC[C@H]2CN2C[C@@]3(CCCc4cc(Cl)ccc43)COc3ccc(cc32)C(=O)NS1(=O)=O` (single isomer, unassigned) [Example 13], the IC50 was found to be 0.77 nM in experiment [1] and 258 nM in experiment [2] (Homo sapiens, OPM-2, 16 h). For the compound `CC(=O)N1CCN2CCN(C[C@H]3CCC[C@H](C)[C@@H](C)S(=O)(=O)NC(=O)c4ccc5c(c4)N(C[C@@H]4CC[C@@H]34)C[C@@]3(CCCc4cc(Cl)ccc43)CO5)C[C@H]2C1` (single isomer, unassigned) [Example 15], the IC50 in experiment [1] amounted to 0.185 nM; in experiment [2] (16 h) it was 277 nM.

For `C[C@@H]1[C@@H](C)CCC[C@H](CN2CC3(CCCN3C)C2)[C@@H]2CC[C@H]2CN2C[C@@]3(CCCc4cc(Cl)ccc43)COc3ccc(cc32)C(=O)NS1(=O)=O` (single isomer, unassigned) [Example 16], the 50% inhibitory concentration (IC50) stood at 0.317 nM in experiment [1] and 283 nM in experiment [2] (16 h). `C[C@@H]1[C@@H](C)CCC[C@H](CN2CC(C)(N(C)C)C2)[C@@H]2CC[C@H]2CN2C[C@@]3(CCCc4cc(Cl)ccc43)COc3ccc(cc32)C(=O)NS1(=O)=O` (single isomer, unassigned) [Example 17]: the IC50 in experiment [1] was determined as 0.881 nM; in experiment [2] (Homo sapiens, OPM-2, 16 h), 284 nM. Regarding `C[C@@H]1[C@@H](C)CCC[C@H](CN2CCN3CCN(C)C[C@@H]3C2)[C@@H]2CC[C@H]2CN2C[C@@]3(CCCc4cc(Cl)ccc43)COc3ccc(cc32)C(=O)NS1(=O)=O` (single isomer, unassigned) [Example 19], the concentration for half-maximal inhibition (IC50) worked out at 0.532 nM in experiment [1] and 303 nM in experiment [2] (16 h). In the case of `CC(=O)N1CCN(C[C@H]2CCC[C@H](C)[C@@H](C)S(=O)(=O)NC(=O)c3ccc4c(c3)N(C[C@@H]3CC[C@@H]23)C[C@@]2(CCCc3cc(Cl)ccc32)CO4)CC1` (single isomer, unassigned) [Example 22], the IC50 was 0.375 nM in experiment [1] and 305 nM in experiment [2] (Homo sapiens, OPM-2, 16 h). `C[C@@H]1[C@@H](C)CCC[C@H](CO)[C@@H]2CC[C@H]2CN2C[C@@]3(CCCc4cc(Cl)ccc43)COc3ccc(cc32)C(=O)NS1(=O)=O` (single isomer, unassigned) [Example 23]: the IC50 is 0.182 nM in experiment [1] and 305 nM in experiment [2] (16 h).

Turning to `C[C@@H]1[C@@H](C)C/C=C/[C@H](CO)[C@@H]2CC[C@H]2CN2C[C@@]3(CCCc4cc(Cl)ccc43)COc3ccc(cc32)C(=O)NS1(=O)=O` (single isomer, unassigned) [Example 24], the results for the IC50 in experiment [1] and in experiment [2] (16 h) were 0.224 nM and 322 nM, respectively. Turning to `C[C@@H]1[C@@H](C)C/C=C/[C@H](CO)[C@@H]2CC[C@H]2CN2C[C@@]3(CCCc4cc(Cl)ccc43)COc3ccc(cc32)C(=O)NS1(=O)=O` (single isomer, unassigned) [Example 26], the values for the IC50 in experiment [1] and in experiment [2] (16 h) were 0.336 nM and 342 nM, respectively. For `COCC[C@@H]1[C@@H](C)CCC[C@H](CO)[C@@H]2CC[C@H]2CN2C[C@@]3(CCCc4cc(Cl)ccc43)COc3ccc(cc32)C(=O)NS1(=O)=O` (single isomer, unassigned) [Example 29], the IC50 turned out to be 0.226 nM in experiment [1] and 366 nM in experiment [2] (16 h). As to `C[C@@H]1[C@@H](C)CCC[C@H](CN2CCN3CCOC[C@H]3C2)[C@@H]2CC[C@H]2CN2C[C@@]3(CCCc4cc(Cl)ccc43)COc3ccc(cc32)C(=O)NS1(=O)=O` (single isomer, unassigned) [Example 31], the IC50 in experiment [1] came out at 0.261 nM; in experiment [2] (16 h) it was 376 nM. Turning to `C[C@@H]1[C@@H](C)CCC[C@H](CN2CCN(C)CC2)[C@@H]2CC[C@H]2CN2C[C@@]3(CCCc4cc(Cl)ccc43)COc3ccc(cc32)C(=O)NS1(=O)=O` (single isomer, unassigned) [Example 34], the IC50 is 0.602 nM in experiment [1] and 417 nM in experiment [2] (16 h). With `CC(=O)N1CCN2CCN(C[C@H]3CCC[C@H](C)[C@@H](C)S(=O)(=O)NC(=O)c4ccc5c(c4)N(C[C@@H]4CC[C@@H]34)C[C@@]3(CCCc4cc(Cl)ccc43)CO5)C[C@H]2C1` (single isomer, unassigned) [Example 35], the IC50 was found to be 0.05 nM in experiment [1] and 421 nM in experiment [2] (16 h). In the case of `C[C@@H]1[C@@H](C)CCC[C@H](CN2CCN3CCN(C(=O)OC(C)(C)C)C[C@@H]3C2)[C@@H]2CC[C@H]2CN2C[C@@]3(CCCc4cc(Cl)ccc43)COc3ccc(cc32)C(=O)NS1(=O)=O` (stereo in doubt) [Example 64], in experiment [2] (Homo sapiens, OPM-2, 16 h), the IC50 stood at 1500 nM.

In the case of `C[C@@H]1[C@@H](C)CCC[C@@H](CC(=O)N2CCN3CCOC[C@H]3C2)[C@@H]2CC[C@H]2CN2C[C@@]3(CCCc4cc(Cl)ccc43)COc3ccc(cc32)C(=O)NS1(=O)=O` [Example 2, (1s,3′r,6′s,7′s,11′s,12′r)-6-chloro-7′-(2-((9ar)-hexahydropyrazino[2,1-c][1,4]oxazin-8(1h)-yl)-2-oxoethyl)-11′,12′-dimethyl-3,4-dihydro-2h,15′h-spiro[naphthalene-1,22′-[20]oxa[13]thia[1,14]diazatetracyclo[14.7.2.0˜3,6˜0.0˜19,24˜]pentacosa[16,18,24]trien]-15′-one 13′,13′-dioxide trifluoroacetic acid], the IC50 in experiment [2] (Homo sapiens, OPM-2, 16 h) was 134 nM.
